Data reported in PMC9967275, “Screening the Pathogen Box to Discover and Characterize New Cruzain and TbrCatL Inhibitors” (Pathogens, 2023).
“Also recorded” adds a separate entry of the source. Like-named read-outs stand apart in the source and are kept apart here.

What was measured:
TbrCatL = target: T1, TbrCatL (Trypanosoma brucei rhodesiense, UniProt Q95PM0); assay: TbrCatL enzymatic inhibition assay (cleavage of fluorogenic substrate Z-FR-AMC); type: biochemical
T1 construct: Conor Caffrey (University of California San Diego)
Summary of the method: (§1)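 Recombinant enzymes assayed by Z-Phe-Arg-AMC cleavage at 25 °C, fluorescence 340/440 nm over 5–7 min, with 10 min or no enzyme–compound preincubation.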

cruzain [1] = target: T2, cruzain (Trypanosoma cruzi, UniProt P25779); assay: Aggregation counter-assays: cruzain inhibition at varying Triton X-100 and after pre-incubation with BSA; type: biochemical; design: Cruzain is the truncated, recombinant-expressed cruzipain 1; Brian Shoichet (University of California San Francisco); conditions: for % Cruzain Inhibition (Mean ± SEM) 0.001% Triton + BSA 1 mg/mL / % Cruzain Inhibition (Mean ± SEM) 0.001% Triton X-100 / % Cruzain Inhibition (Mean ± SEM) 0.01% Triton X-100 / % Cruzain Inhibition (Mean ± SEM) 0.1% Triton X-100: compound µM: MMV687246 12.5, MMV687812 3.125, MMV688179 1.563, MMV688362 3.125, MMV688466 6.25, MMV690028 25
Description: To assess the effects of the Triton X-100 concentration on cruzain inhibition, assays were performed using 0.001%, 0.01%, and 0.1% Triton X-100. To evaluate the impact of pre-incubation with bovine serum albumin (BSA), 50 µL of a solution of the compound in the assay buffer containing 0.001% of Triton X-100 was incubated with 4 mg/mL of BSA (Sigma-Aldrich) for 10′ in a 96-well plate. Next, 50 µL of a solution containing circa 2 nM of cruzain in the same buffer was added to each well and incubated for another 10′. Finally, 100 µL of a solution of 5 µM Z-FR-AMC in the same buffer was added to each well and the fluorescence was immediately read. The final compound concentration varies and was selected to be near the compound IC50.
To investigate if inhibition was due to colloidal aggregation, a common cause of unspecific enzyme inhibition in in vitro assays, we employed two well-established experiments: the comparison of percentages of inhibition at varying Triton X-100 concentrations and the effect of compound pre-incubation with BSA on the percentage of inhibition. […] Pre-incubating a compound that aggregates with BSA saturates the protein-binding capacity of the aggregate.

cruzain [2] = target: T2, cruzain; assay: Mechanism of inhibition against cruzain (Michaelis-Menten, Lineweaver-Burk); type: biochemical; design: Cruzain is the truncated, recombinant-expressed cruzipain 1; Brian Shoichet (University of California San Francisco)
Description: Non-linear regression to Michaelis-Menten models and linear regression for the Lineweaver-Burk plot were performed. Ki was estimated by both methods. The effect of the inhibitor concentration on the Km app was evaluated using the General Linear F-test.

cruzain [3] = target: T2, cruzain; assay: biochemical
Summary of the method: as §1

[4] = tested on: porphobilinogen deaminase; design: method as in earlier work; conditions: cited from earlier work
SARS-CoV-2 MPro = tested on: SARS-CoV-2 MPro; design: method as in PMID 33655614; conditions: read-out: IC50 against MPro; cited from earlier work
DNA minor groove = tested on: DNA minor groove; design: method as in PMID 18247550, PMID 22497334; conditions: SPR, ITC, CD, and Tm experiments; cited from earlier work
T. cruzi = conditions: cited from earlier work
ferrochelatase = tested on: ferrochelatase; design: method as in earlier work; conditions: cited from earlier work
[5] = design: method as in earlier work; conditions: cited from earlier work
[6] = IC50 (µM ± SEM %) TbrCatL 0′, no pre-incubation
[7] = IC50 (µM ± SEM %) TbrCatL 10′ inc, 10′ pre-incubation
[8] = read-out: Inhibition at 5 µM (Mean ± SEM %) TbrCatL 0′
[9] = read-out: Inhibition at 5 µM (Mean ± SEM %) TbrCatL 10′ inc
[10] = read-out: Inhibition at 100 µM (Mean ± SEM %) TbrCatL 0′
[11] = read-out: Inhibition at 100 µM (Mean ± SEM %) TbrCatL 10′ inc
[12] = read-out: TbrCatL 0’ Inhibition
[13] = read-out: TbrCatL 10’ Inhibition
[14] = IC50 (µM ± SEM %) Cruzain 0′, no pre-incubation
[15] = IC50 (µM ± SEM %) Cruzain 10′ inc, 10′ pre-incubation
[16] = read-out: Cruzain 0’ Inhibition, 0’ (pre-incubation time), sheet "Screening results"
[17] = read-out: Cruzain 10’ Inhibition, 10’ (pre-incubation time), sheet "Screening results"
[18] = read-out: Inhibition at 5 µM (Mean ± SEM %) Cruzain 0′, 5 µM, no pre-incubation, initial screening
[19] = read-out: Inhibition at 5 µM (Mean ± SEM %) Cruzain 10′ inc, 5 µM, 10′ pre-incubation, initial screening
[20] = read-out: Inhibition at 100 µM (Mean ± SEM %) Cruzain 0′, 100 µM, no pre-incubation, solid samples
[21] = read-out: Inhibition at 100 µM (Mean ± SEM %) Cruzain 10′ inc, 100 µM, 10′ pre-incubation, solid samples
[22] = read-out: Inhibition of cruzain or TbrCatL (either enzyme) in the initial screening, 5 µM, either cruzain or TbrCatL, with or without pre-incubation

T1 sequence (Q95PM0 entry or part of it): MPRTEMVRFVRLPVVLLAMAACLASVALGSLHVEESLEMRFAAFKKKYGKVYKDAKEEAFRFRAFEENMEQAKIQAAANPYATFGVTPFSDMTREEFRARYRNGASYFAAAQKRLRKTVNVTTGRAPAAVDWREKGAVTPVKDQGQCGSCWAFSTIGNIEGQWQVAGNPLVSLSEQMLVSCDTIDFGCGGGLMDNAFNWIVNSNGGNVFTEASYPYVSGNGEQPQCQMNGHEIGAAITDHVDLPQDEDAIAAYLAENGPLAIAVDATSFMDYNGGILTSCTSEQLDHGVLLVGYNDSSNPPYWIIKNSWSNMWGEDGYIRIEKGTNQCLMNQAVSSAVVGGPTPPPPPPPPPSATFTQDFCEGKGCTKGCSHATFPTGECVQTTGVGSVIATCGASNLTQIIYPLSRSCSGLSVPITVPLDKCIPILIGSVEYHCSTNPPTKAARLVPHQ
T2 sequence (P25779 123-337 limits assumed): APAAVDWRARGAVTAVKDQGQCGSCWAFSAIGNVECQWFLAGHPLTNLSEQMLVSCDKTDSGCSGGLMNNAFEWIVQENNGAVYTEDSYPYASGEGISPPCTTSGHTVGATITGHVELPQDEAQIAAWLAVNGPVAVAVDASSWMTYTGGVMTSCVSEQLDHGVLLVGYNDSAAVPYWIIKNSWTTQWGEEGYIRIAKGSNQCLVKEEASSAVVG

Row | Structure (SMILES) | IC50 (TbrCatL; [6]) | IC50 (TbrCatL; [7]) | inhibition at 5 µM (TbrCatL; [8]) | inhibition at 5 µM (TbrCatL; [9]) | inhibition at 100 µM (TbrCatL; [10]) | inhibition at 100 µM (TbrCatL; [11]) | inhibition at 5 µM (TbrCatL; [12]) | inhibition at 5 µM (TbrCatL; [13]) | % Cruzain Inhibition (Mean ± SEM) 0.001% Triton + BSA 1 mg/mL (cruzain [1]) | % Cruzain Inhibition (Mean ± SEM) 0.001% Triton X-100 (cruzain [1]) | % Cruzain Inhibition (Mean ± SEM) 0.01% Triton X-100 (cruzain [1]) | % Cruzain Inhibition (Mean ± SEM) 0.1% Triton X-100 (cruzain [1]) | IC50 (cruzain [3]; [14]) | IC50 (cruzain [3]; [15]) | inhibition at 5 µM (cruzain [3]; [16]) | inhibition at 5 µM (cruzain [3]; [17]) | inhibition at 5 µM (cruzain [3]; [18]) | inhibition at 5 µM (cruzain [3]; [19]) | inhibition at 100 µM (cruzain [3]; [20]) | inhibition at 100 µM (cruzain [3]; [21]) | further results
1 | CN1CCN(S(=O)(=O)c2ccc(-c3ccc4c(Nc5ccc6nn[nH]c6c5)ccnc4c3)cc2)CC1 [MMV687246] | 9 ± 3 µM | 4.2 ± 0.6 µM | 29 ± 1% | 49 ± 4% | 92 ± 6% | 99 ± 1% | 29% | 49% | 45 ± 1% | 62 ± 3% | 51 ± 0% | 32 ± 2% | 14 ± 5 µM | 10 ± 2 µM | 24% | 39% | 24 ± 3% | 39 ± 3% | 72 ± 1% | 92 ± 3% | Ki (cruzain [2]): 57 ± 6 µM; Mechanism of inhibition of cruzain (cruzain [2]): mixed inhibitor; also recorded: mixed inhibition; α value (mixed inhibition) (cruzain [2]; mixed model): 0.7 ± 0.2; Change of IC50 with vs without 10′ pre-incubation (cruzain [3]; against cruzain, 10 min): up to 2 fold; inhibition at 5 µM (cruzain [3]; [22]): ≥ 40%
2 | N=C(N)Nc1ccc(-c2ccc(-c3ccc(NC(=N)N)cc3Cl)o2)c(Cl)c1 [MMV688179] | 4 ± 1 µM | 5 ± 2 µM | 50 ± 3% | 58 ± 25% | 100% | 100% | 50% | 58% | 89 ± 8% | 85 ± 6% | 80 ± 1% | 82 ± 13% | 0.46 ± 0.03 µM | 0.53 ± 0.03 µM | 102% | 110% | 98 ± 2% | 100% | 100% | 100% | Inhibition of porphobilinogen deaminase [4]: lack of MMV688179 inhibition; IC50 (SARS-CoV-2 MPro): 1.6 µM; Binding to the DNA minor groove (DNA minor groove): known to bind to the DNA minor groove; IC50 against TbrCatL relative to cruzain (TbrCatL; TbrCatL vs cruzain): 10 fold; Colloidal aggregation assessment (cruzain [1]; near the IC50): do not suggest aggregation properties near the IC50; Mechanism of inhibition of cruzain (cruzain [2]): competitive inhibitor; also recorded: competition with the substrate; Ki (cruzain [2]; competitive model, read-out: Ki against cruzain from non-linear regression of the Michaelis-Menten competitive model): 0.165 ± 0.063 µM; Ki (cruzain [2]; linear regression of Kmapp, read-out: Ki against cruzain from the linear regression of Kmapp): 0.206 µM; EC50 (T. cruzi; read-out: EC50 against T. cruzi): 27 µM; Inhibition of ferrochelatase (ferrochelatase): lack of MMV688179 inhibition; inhibition at 5 µM (cruzain [3]; [22]): ≥ 60%; CC50 [5]: 11.6 µM
3 | COc1cc(C2=NCCN2)cc2cc(-c3ccc(C4=NCCN4)cc3)oc12 [MMV688362] | 2.9 ± 0.8 µM | 2.3 ± 0.1 µM | 9 ± 1% | 43 ± 4% | 100% | 100% | 9% | 43% | 29 ± 3% | 59 ± 2% | 41 ± 2% | 25 ± 2% | 4.2 ± 0.6 µM | 2.35 ± 0.02 µM | 19% | 27% | 19 ± 1% | 27 ± 3% | 100% | 100% | Binding to the DNA minor groove (DNA minor groove): known to bind to the DNA minor groove; Effect of pre-incubation of the compound with BSA on cruzain inhibition (cruzain [1]; near the IC50): some reduction in the inhibition; EC50 (T. cruzi; ref Pathogen Box data, read-out: EC50 against T. cruzi reported on PB): 13 µM; IC50 (cruzain [3]; IC50 against cruzain and TbrCatL (summary), cruzain and TbrCatL, with or without pre-incubation): 2 to 4 µM; inhibition at 5 µM (cruzain [3]; [22]): ≥ 40%
